Reference: the NIST ThermoML archive (doi:10.1016/j.fluid.2013.08.029)

Test: xn = mol fraction of the nth substance listed
Details: 101 kPa, Liquid; for speed of sound: Sing-around technique in a fixed-path interferometer; for mass density: Vibrating tube method

CCCCCn1cc[n+](C)c1.[Br-] [1-pentyl-3-methylimidazolium bromide] + OCCO
Details	mass density [kg/m3]	speed of sound [m/s]
288.15 K, x1 = 0.0528	1135.7	1671.7
288.15 K, x1 = 0.1031	1149.85	1664.4
288.15 K, x1 = 0.2102	1173.93	1650.6
288.15 K, x1 = 0.3163	1191.2	1645.3
288.15 K, x1 = 0.4186	1204.89	1641.4
288.15 K, x1 = 0.512	1215.13	1637.7
288.15 K, x1 = 0.6129	1224.18	1636.5
288.15 K, x1 = 0.6967	1232.13	1638.7
288.15 K, x1 = 0.8031	1241.92	1645
288.15 K, x1 = 0.9021	1252.46	1657.9
293.15 K, x1 = 0.0528	1132.19	1659.9
293.15 K, x1 = 0.1031	1146.32	1653.9
293.15 K, x1 = 0.2102	1170.4	1642
293.15 K, x1 = 0.3163	1187.71	1634.5
293.15 K, x1 = 0.4186	1201.44	1628.9
293.15 K, x1 = 0.512	1211.73	1625.5
293.15 K, x1 = 0.6129	1220.73	1623.6
293.15 K, x1 = 0.6967	1228.69	1623.8
293.15 K, x1 = 0.8031	1238.53	1626.3
293.15 K, x1 = 0.9021	1249.15	1631.1
298.15 K, x1 = 0.0528	1128.67	1648.2
298.15 K, x1 = 0.1031	1142.79	1640.8
298.15 K, x1 = 0.2102	1166.87	1630.7
298.15 K, x1 = 0.3163	1184.21	1623
298.15 K, x1 = 0.4186	1198	1616.8
298.15 K, x1 = 0.512	1208.33	1613.8
298.15 K, x1 = 0.6129	1217.41	1612.4
298.15 K, x1 = 0.6967	1225.25	1611.9
298.15 K, x1 = 0.8031	1235.13	1613.2
298.15 K, x1 = 0.9021	1245.76	1616
303.15 K, x1 = 0.0528	1125.14	1636.4
303.15 K, x1 = 0.1031	1139.26	1629.8
303.15 K, x1 = 0.2102	1163.34	1619.1
303.15 K, x1 = 0.3163	1180.73	1611.6
303.15 K, x1 = 0.4186	1194.57	1606.2
303.15 K, x1 = 0.512	1204.94	1603
303.15 K, x1 = 0.6129	1214.06	1601.7
303.15 K, x1 = 0.6967	1221.86	1600.4
303.15 K, x1 = 0.8031	1231.73	1600.9
303.15 K, x1 = 0.9021	1242.37	1602.4
308.15 K, x1 = 0.0528	1121.61	1624.7
308.15 K, x1 = 0.1031	1135.72	1618.3
308.15 K, x1 = 0.2102	1159.81	1607.5
308.15 K, x1 = 0.3163	1177.25	1600.1
308.15 K, x1 = 0.4186	1191.13	1594.3
308.15 K, x1 = 0.512	1201.54	1591.3
308.15 K, x1 = 0.6129	1210.72	1590
308.15 K, x1 = 0.6967	1218.56	1589.1
308.15 K, x1 = 0.8031	1228.31	1589.3
308.15 K, x1 = 0.9021	1238.93	1589.8
313.15 K, x1 = 0.0528	1118.07	1613.1
313.15 K, x1 = 0.1031	1132.18	1606.5
313.15 K, x1 = 0.2102	1156.29	1596.1
313.15 K, x1 = 0.3163	1173.78	1588.8
313.15 K, x1 = 0.4186	1187.7	1583.2
313.15 K, x1 = 0.512	1198.15	1580.3
313.15 K, x1 = 0.6129	1207.38	1579.1
313.15 K, x1 = 0.6967	1215.25	1578.2
313.15 K, x1 = 0.8031	1225	1578
313.15 K, x1 = 0.9021	1235.48	1578
318.15 K, x1 = 0.0528	1114.51	1601.4
318.15 K, x1 = 0.1031	1128.62	1595
318.15 K, x1 = 0.2102	1152.75	1584.5
318.15 K, x1 = 0.3163	1170.3	1577.5
318.15 K, x1 = 0.4186	1184.27	1572.2
318.15 K, x1 = 0.512	1194.76	1569.5
318.15 K, x1 = 0.6129	1204.05	1568.3
318.15 K, x1 = 0.6967	1211.94	1567.4
318.15 K, x1 = 0.8031	1221.73	1567.1
318.15 K, x1 = 0.9021	1232.06	1566.8
